Key:
3T3-L1 adipocytes = assay: Insulin-stimulated 2-deoxyglucose uptake; type: cell-based, mouse; conditions: 3 h, 893 10 μM, MK-2206 2 μM
Protocol: (§1) 3T3-L1 cells were maintained in DMEM with 10% FBS and 1% penicillin-streptomycin until induced to differentiate. 3T3-L1 pre-adipocytes were differentiated as described in (M. P. Valley, et al., Anal. Biochem. 505: 43-50, 2016, the disclosure of which is incorporated herein by reference) with slight modifications. Briefly, pre-adipocytes were grown to confluence. After 2 d, cells were induced with maintenance media containing 500 μM IBMX (15879, Sigma-Aldrich, St. Louis, Mo.), 1 μM dexamethasone (D4902, Sigma-Aldrich), 5 μg/mL bovine insulin (10516, Sigma-Aldrich), and 5 μM troglitazone (50-115-0786, ApexBio). Media was changed every 2-3 d for 7 d. On day 7 post-induction, media was changed to maintenance media+5 μg/mL bovine insulin. On day 9 post-induction, media was changed to maintenance media. Mature adipocytes were used 12-14 d post-induction for all experiments. LSL-KrasG12D mouse embryonic fibroblasts (MEFs) with and without Cre-mediated deletion of the STOP cassette were obtained from David Tuveson (Cold Spring Harbor Laboratory, Cold Spring Harbor N.Y., USA) in 2000. p53^flox/flox MEFs were derived in house (2015) from C57BL/6 mice using standard techniques and immortalized by transient expression of Cre recombinase and deletion of p53. MEFs were cultured and maintained in DMEM with 10% FBS and 1% penicillin-streptomycin. […]

DRP1 = DRP1 recruitment to mitochondria (DRP1/citrate synthase co-localization) and DRP1 western blot; type: cell-based, mouse; conditions: MEFs; 893 5 μM or YM201636 800 nM 3 h, then palmitate 250 μM 3 h
Protocol: Mature adipocytes were serum starved for 16 h then treated with vehicle, ceramide (50 or 100 μM), or sphingolipid-like compound 893 (5 or 10 μM) in serum-free media supplemented with 0.2% fatty-acid free BSA for 3 h after which 100 nM insulin was added for 15 min. To determine total DRP1 protein levels, 100,000 MEFs were seeded into a 6-well plate for 16 h, pre-treated for 3 h with vehicle or sphingolipid-like compound 893 (5 μM) followed by a 3 h incubation in 1% BSA+ethanol or BSA-palmitate (250 μM). Cells were washed once with cold PBS, then lysed in cold RIPA buffer (140 mM NaCl, 10 mM Tris pH 8.0, 1% Triton X-100, 0.1% SDS, 1% sodium deoxycholate) with cOmplete™ protease inhibitor (Cat no. 11697498001, Millipore Sigma, St. Louis, Mo.) and phosSTOP™ phosphatase inhibitor (Cat no. 4906837001, Millipore Sigma). Samples were incubated on ice for 10 min and insoluble material removed by centrifugation (9000×g for 10 min at 4° C.). Protein content was quantified in the supernatant using the Pierce™ BCA Protein Assay Kit (Thermo-Fisher Scientific, Waltham, Mass.). Equal amounts of protein were prepared in NuPAGE® LDS Sample Buffer (NP0007, Invitrogen) containing 50 mM DTT, and heated at 70° C. for 10 min. Proteins were resolved on a NuPAGE® 4-12% Bis-Tris protein gel (NP0336, Invitrogen, Carlsbad, Calif.) and subsequently transferred to a nitrocellulose membrane. Membranes were blocked in 5% BSA in TBST for 1 h, then probed with primary antibodies overnight at 4° C. […] Band intensity was quantified using Image Studio Lite V5.2 software (Li-COR).
MEFs were washed twice with PBS and fixed with 4% paraformaldehyde for 10 min at RT. […] NADH/NADPH autofluorescence was detected with 740 nm excitation and 450±50 nm detectors using a Mai Tai two-photon laser. Fluorescence microscopy was performed on a Zeiss LSM 780 confocal using a 63× oil objective with a […] numerical aperture (NA) or using a Nikon TE2000-S inverted epifluorescence microscope with a 100× oil objective (1.3 NA) and a Photometrics CoolSNAP ES2 monochrome CCD camera. […]

AKT = assay: Insulin-stimulated AKT activation, western blot; type: cell-based, mouse; conditions: 3T3-L1 adipocytes; 3 h pre-treatment, C2-ceramide 50 or 100 μM, 893 5 or 10 μM; insulin 100 nM 15 min
Protocol: as §1, with “experiments.” for “experiments. LSL-KrasG12D mouse embryonic fibroblasts (MEFs) with and without Cre-mediated deletion of the STOP cassette were obtained from David Tuveson (Cold Spring Harbor Laboratory, Cold Spring Harbor N.Y., USA) in 2000. p53^flox/flox MEFs were derived in house (2015) from C57BL/6 mice using standard techniques and immortalized by transient expression of Cre recombinase and deletion of p53. MEFs were cultured and maintained in DMEM with 10% FBS and 1% penicillin-streptomycin.”
Mature adipocytes were serum starved for 16 h then treated with vehicle, ceramide (50 or 100 μM), or sphingolipid-like compound 893 (5 or 10 μM) in serum-free media supplemented with 0.2% fatty-acid free BSA for 3 h after which 100 nM insulin was added for 15 min. […] Protein content was quantified in the supernatant using the Pierce™ BCA Protein Assay Kit (Thermo-Fisher Scientific, Waltham, Mass.). […]

[1] = Home-cage feeding study with suboptimal leptin (leptin sensitization); type: in vivo, mouse; conditions: lean chow-fed 18 week old mice; leptin 2 mg/kg i.p. or 893 120 mg/kg by gavage
Text: Leptin is secreted by adipocytes in proportion to their triglyceride content, signaling to the CNS when peripheral energy stores are full and food consumption should decrease. In HFD-fed mice, chronic increases in adiposity lead to elevations in circulating leptin with no accompanying decrease in food intake, a state that has been termed leptin-resistant. Reducing leptin levels in the blood restores leptin signaling in the hypothalamus (S. Zhao, et al., 2019, cited supra). Thus, the sphingolipid-like compound 893 should function as a leptin-sensitizing agent. To test this model, 18 week old lean, male C57BL/6J mice were treated intraperitoneally with a suboptimal dose of recombinant leptin at ZT8.5 and food intake and body weight measured over the next 18 h. […] In summary, the reduction in food intake in sphingolipid-like compound 893-treated mice is consistent with the reversal of mitochondrial fragmentation in the hypothalamus and likely due in part to the re-sensitization of anorexigenic POMG neurons to leptin when plasma leptin levels are decreased.
Mice were singly housed and allowed to acclimate for 72 h before food intake was monitored. Food consumption was determined by monitoring the weight of food in the hopper. Initial food and body weight measurements were taken at ZT9 and final measurements were taken 16 h later to capture the active period where most consumption occurred. Home cage feeding studies were performed with C57BL/6J mice maintained on a HFD for 24 weeks (33 weeks of age), or ob/ob mice at 8 weeks of age. Mice received vehicle or 120 mg/kg sphingolipid-like compound 893 by gavage at ZT8.5. For experiments involving leptin, 18 week old, SD fed (16% kcal from fat, 2020×, Envigo) C57BL/6J mice received vehicle or 120 mg/kg sphingolipid-like compound 893 by gavage at ZT8.5. […] One ob/ob mouse died during Echo MRI for unknown reasons after 6 d of treatment with sphingolipid-like compound 893; data from this mouse was analyzed prior to death.

For `NC1(c2ccc(-c3nc4ccn5c(=O)[nH]nc5c4cc3-c3ccccc3)cc2)CCC1` [MK-2206, reference compound], which Insulin-stimulated glucose uptake (3T3-L1 adipocytes) is on record?
Its Insulin-stimulated glucose uptake is “impeded insulin-stimulated glucose uptake in adipocytes”.

For `Nc1ccc(C(=O)Nc2cccc(-c3nc(N4CCOCC4)c4oc5ncccc5c4n3)c2)cn1` [YM201636, reference compound], which “DRP1 recruitment to mitochondria in response to palmitate” value (DRP1) is on record?
Its value is “prevented DRP1 recruitment”.

For `CCCCCCCCCCCCC/C=C/[C@@H](O)[C@H](CO)NC(C)=O` [ceramide, C2-ceramide, reference compound], which “Insulin-stimulated AKT activation” value (AKT) is on record?
The value was “interfered with insulin-stimulated AKT activation”.

B1: leptin: recombinant mouse leptin (498-OB, R&D Systems) (protein, UniProt P41160 22-167, looked up)
Leptin: VPIQKVQDDTKTLIKTIVTRINDISHTQSVSAKQRVTGLDFIPGLHPILSLSKMDQTLAVYQQVLTSLPSQNVLQIANDLENLRDLLHLLAFSKSCSLPQTSGLQKPESLDGVLEASLYSTEVVALSRLQGSLQDILQQLDVSPEC
Which “Food intake and body weight over 18 h, single agent” value [1] does the source give for B1 here?
The value was “not sufficient to decrease food intake or body weight”.

— patent US20220409617A1, “Drug Formulations and Methods of Treatment for Metabolic Disorders” (The Regents of the University of California, priority 2019, published 2022)
